The text below walks through data of patent US9365506B2, “Compounds and compositions as TLR2 agonists” (NOVARTIS AG, priority 2010, dated 2016).

The experiment deals with human TLR2 (Homo sapiens, UniProt O60603). Nature of the experiment: Reporter gene assay: HEK 293 cells stably transfected with human TLR2 and NF-kB-driven luciferase reporter. Conditions: for Emax: HEK293, 7 h, read-out: Hek-TLR2 (% Eff); for EC50: Hek-TLR2 μM (EC50), HEK 293 stably transfected with human TLR2 and pNifty-Luciferase, 7 hours incubation, concentration giving 50% of maximal signal. On the technique in general: Reporter assays use an easily measured gene product as a stand-in for the process of interest.

Broadly, the EC50 is the concentration giving half of the maximal effect. Lower therefore signals higher potency in that assay.

Chain of human TLR2 (O60603 21-784): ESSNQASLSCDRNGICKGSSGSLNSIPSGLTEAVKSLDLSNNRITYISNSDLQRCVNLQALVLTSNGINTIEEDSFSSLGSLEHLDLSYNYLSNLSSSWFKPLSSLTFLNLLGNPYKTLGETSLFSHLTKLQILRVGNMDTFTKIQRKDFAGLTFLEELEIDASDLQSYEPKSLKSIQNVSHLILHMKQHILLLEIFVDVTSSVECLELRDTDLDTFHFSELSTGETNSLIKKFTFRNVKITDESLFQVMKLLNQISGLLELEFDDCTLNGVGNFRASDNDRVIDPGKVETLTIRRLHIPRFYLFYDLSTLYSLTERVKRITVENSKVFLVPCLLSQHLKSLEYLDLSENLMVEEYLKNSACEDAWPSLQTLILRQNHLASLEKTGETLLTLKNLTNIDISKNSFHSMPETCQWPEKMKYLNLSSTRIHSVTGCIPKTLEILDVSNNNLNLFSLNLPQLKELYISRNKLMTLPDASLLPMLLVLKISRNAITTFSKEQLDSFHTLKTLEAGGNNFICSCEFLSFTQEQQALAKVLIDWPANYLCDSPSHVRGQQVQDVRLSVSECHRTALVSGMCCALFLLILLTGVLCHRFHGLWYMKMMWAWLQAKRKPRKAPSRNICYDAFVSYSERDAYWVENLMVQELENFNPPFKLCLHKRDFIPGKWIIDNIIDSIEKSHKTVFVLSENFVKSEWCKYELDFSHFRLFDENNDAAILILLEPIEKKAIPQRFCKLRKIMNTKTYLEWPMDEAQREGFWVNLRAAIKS
Experimental: As a control assay, normal Hek293 transfected with pNifty-Luc were used. […] Bright-Glo™ Luciferase assay buffer and substrate were supplied by Promega #E263B and #E264B (assay substrate and buffer respectively). 384 well clear-bottom plates were supplied by Greiner bio-one (#789163-G) and were custom bar-coded plates.
Cells were plated at 25,000 cells/well in 384-well plates in a final volume of 50 μl of media. Cells were allowed to adhere to the plates after overnight (18 hours) culture at 37° C. and 5% CO2. Serially diluted experimental and positive control compounds were then dispensed to each well and incubated for 7 hours at 37° C. and 5% CO2. Cells stimulated with DMSO alone also serve as negative controls. After the incubation, 30 μl of the pre-mix assay buffer and substrate buffer were added to each well according to manufacturer's instructions. The luminescence signal was read on a CLIPR machine with an integration time of 20 seconds per plate.

Take `CCCCCCCCCCCC(=O)OC[C@H](CSC[C@H](N)C(=O)NCCOCCOCCC(F)(F)P(=O)(O)O)OC(=O)CCCCCCCCCCC` [Example 4, (12R,16R)-12-amino-16-(dodecanoyloxy)-1,1-difluoro-11,19-dioxo-4,7,18-trioxa-14-thia-10-azatriacontylphosphonic acid]: the Emax was determined as 101% and the EC50 came to 31 nM.

Take `CCCCCCCCCCCC(=O)OC[C@H](CSC[C@H](N)C(=O)NCCCCCN)OC(=O)CCCCCCCCCCC` [Example 7, (R)-3-((R)-2-amino-3-(5-aminopentylamino)-3-oxopropylthio)propane-1,2-diyl didodecanoate]: the Emax came out at 113% and a half-maximal effect (EC50) was put at 1220 nM.

Regarding `CCCCCCCCCCCC(=O)OC[C@H](CSC[C@H](N)C(=O)NCCCOCCCCOCCCN)OC(=O)CCCCCCCCCCC` [Example 8, (2R,6R)-6,20-diamino-7-oxo-12,17-dioxa-4-thia-8-azaicosane-1,2-diyl didodecanoate], the Emax is 98% and the EC50 is 810 nM.

For `CCCCCCCCCCCC(=O)OC[C@H](CSC[C@H](N)C(=O)NCCCOCCOCCOCCCNC(=O)C(N)CS)OC(=O)CCCCCCCCCCC` (stereo partly drawn) [Example 9, (20R,24R)-2,20-diamino-1-mercapto-3,19-dioxo-8,11,14-trioxa-22-thia-4,18-diazapentacosane-24,25-diyl didodecanoate], the Emax was 73% and the EC50 amounted to 247 nM.

Regarding `CCCCCCCCCCCCCCCCOC[C@H](CSC[C@H](N)C(=O)N[C@@H](CC)C(=O)N[C@H](CCC(=O)O)C(N)=O)OCCCCCCCCCCCCCCCC` [Example 10, (4R,7S,10R,14R)-10-amino-4-carbamoyl-7-ethyl-14-(hexadecyloxy)-6,9-dioxo-16-oxa-12-thia-5,8-diazadotriacontan-1-oic acid], the Emax came to 72% and the EC50 turned out to be 14100 nM.

As for `CCCCCCCCCCCCCCCCOC[C@H](CSC[C@H](N)C(=O)NC1(CO)CC1)NC(=O)CCCCCCCCCCC` [Example 11, N—((R)-1-((R)-2-amino-3-(1-(hydroxymethyl)cyclopropylamino)-3-oxopropylthio)-3-(hexadecyloxy)propan-2-yl)dodecanamide], the Emax worked out at 3.6% and the EC50 was over 100000 nM.

As to `CCCCCCCCCCCC(=O)NC[C@H](CSC[C@H](N)C(=O)NC1(CO)CC1)NC(=O)CCCCCCCCCCC` [Example 12, N,N′—((R)-3-((R)-2-amino-3-(1-(hydroxymethyl)cyclopropylamino)-3-oxopropylthio)propane-1,2-diyl)didodecanamide], the Emax was determined as 3.5% and the EC50 is over 100000 nM.

On to `CCCCCCCCCCCC(=O)OC[C@H](CSC[C@H](N)C(=O)N[C@@H](CC)COCC(=O)O)OC(=O)CCCCCCCCCCC` [Example 13, (5S,8R,12R)-8-amino-12-(dodecanoyloxy)-5-ethyl-7,15-dioxo-3,14-dioxa-10-thia-6-azahexacosan-1-oic acid], for which the Emax stood at 118% and the EC50 is 6500 nM.

As for `CCCCCCCCCCCC(=O)OC[C@H](CSC[C@H](N)C(=O)N[C@@H](C)COCCCP(=O)(O)O)OC(=O)CCCCCCCCCCC` [Example 14, (6S,9R,13R)-9-amino-13-(dodecanoyloxy)-6-methyl-8,16-dioxo-4,15-dioxa-11-thia-7-azaheptacosylphosphonic acid], the Emax stood at 153% and the EC50 was 19.2 nM.

As to `CCCCCCCCCCCC(=O)OC[C@H](CSC[C@H](N)C(=O)NCCc1ccc(OCCCP(=O)(O)O)cc1)OC(=O)CCCCCCCCCCC` [Example 16, 3-(4-(2-((R)-2-amino-3-((R)-2,3-bis(dodecanoyloxy)propylthio)propanamido)ethyl)phenoxy)propylphosphonic acid], the Emax was 107% and the response was half-maximal at 410 nM (EC50).

For `CCCCCCCCCCCC(=O)OC[C@H](CSC[C@H](N)C(=O)NCCOCCC(F)(F)P(=O)(O)O)OC(=O)CCCCCCCCCCC` [Example 21, (9R,13R)-9-amino-13-(dodecanoyloxy)-1,1-difluoro-8,16-dioxo-4,15-dioxa-11-thia-7-azaheptacosylphosphonic acid], the Emax is 122% and the EC50 stood at 14 nM.

As to `CCCCCCCCCCCCOC[C@H](CSC[C@H](N)C(=O)NCCOCCOCCC(F)(F)P(=O)(O)O)OCCCCCCCCCCCC` [Example 22, (12R,16R)-12-amino-16-(dodecyloxy)-1,1-difluoro-11-oxo-4,7,18-trioxa-14-thia-10-azatriacontylphosphonic acid], the Emax turned out to be 60% and the EC50 is 2450 nM.

Turning to `CCCCCCCC(=O)OC[C@H](CSC[C@H](N)C(=O)NCCOCCOCCOCCP(=O)(O)O)OC(=O)CCCCCCC` [Example 23, (14R,18R)-14-amino-18-(octanoyloxy)-13,21-dioxo-3,6,9,20-tetraoxa-16-thia-12-azaoctacosylphosphonic acid], the Emax was 73% and the midpoint of the response, the EC50, lay at 3040 nM.

On to `CCCCCCCCCCCCCC(=O)OC[C@H](CSC[C@H](N)C(=O)NCCOCCOCCOCCP(=O)(O)O)OC(=O)CCCCCCCCCCCCC` [Example 25, (14R,18R)-14-amino-13,21-dioxo-18-(tetradecanoyloxy)-3,6,9,20-tetraoxa-16-thia-12-azatetratriacontylphosphonic acid], for which the Emax was 99% and a half-maximal response (EC50) required 6.3 nM.

On to `CCCCCCCCCCCCOC[C@H](CSC[C@H](N)C(=O)NCCOCCOCCOCCP(=O)(O)O)OC(=O)CCCCCCCCCCC` [Example 27, ((14R,18R)-14-amino-18-(dodecanoyloxy)-13-oxo-3,6,9,20-tetraoxa-16-thia-12-azadotriacontyl)phosphonic acid], for which the Emax came out at 77% and the EC50 worked out at 610 nM.

On to `CCCCCCCCCCCCOC[C@H](CSC[C@H](N)C(=O)N[C@@H](C)COCCOCCOCCP(=O)(O)O)NC(=O)CCCCCCCCCCC` [Example 28, ((11S,14R,18R)-14-amino-18-dodecanamido-11-methyl-13-oxo-3,6,9,20-tetraoxa-16-thia-12-azadotriacontyl)phosphonic acid], for which the Emax was 37% and it took 990 nM to reach a half-maximal effect (EC50).

With `CCCCCCCCCCCCOC[C@H](CSC[C@H](N)C(=O)N[C@@H](C)COCCOCCOCCP(=O)(O)O)OCCCCCCCCCCCC` [Example 29, ((11S,14R,18R)-14-amino-18-(dodecyloxy)-11-methyl-13-oxo-3,6,9,20-tetraoxa-16-thia-12-azadotriacontyl)phosphonic acid], the Emax worked out at 74% and the EC50 was found to be 1850 nM.

In the case of `CCCCCCCCCCCCOC[C@H](CSC[C@H](N)C(=O)N[C@@H](C)C(=O)NCCOCCOCCP(=O)(O)O)OCCCCCCCCCCCC` [Example 30, ((11S,14R,18R)-14-amino-18-(dodecyloxy)-11-methyl-10,13-dioxo-3,6,20-trioxa-16-thia-9,12-diazadotriacontyl)phosphonic acid], the Emax is 59% and a half-maximal effect (EC50) was put at 920 nM.

For `CCCCCCCCCCCCOC[C@H](CSC[C@H](N)C(=O)N[C@@H](C)C(=O)NCCOCCOCCP(=O)(O)O)NC(=O)CCCCCCCCCCC` [Example 31, ((11S,14R,18R)-14-amino-18-dodecanamido-11-methyl-10,13-dioxo-3,6,20-trioxa-16-thia-9,12-diazadotriacontyl)phosphonic acid], the Emax was determined as 35% and the response was half-maximal at 2910 nM (EC50).

As to `CCCCCCCCCCCCOC[C@H](CSC[C@H](N)C(=O)NCCOCCOCCOCCC(=O)O)OCCCCCCCCCCCC` [Example 32, (15R,19R)-15-amino-19-(dodecyloxy)-14-oxo-4,7,10,21-tetraoxa-17-thia-13-azatritriacontan-1-oic acid], the Emax is 78% and the midpoint of the response, the EC50, lay at 9130 nM.

Take `CCCCCCCCCCCCOC[C@H](CSC[C@H](N)C(=O)NCCOCCOCCOCCC(=O)O)NC(=O)CCCCCCCCCCC` [Example 33, (15R,19R)-15-amino-19-dodecanamido-14-oxo-4,7,10,21-tetraoxa-17-thia-13-azatritriacontan-1-oic acid]: the Emax was 48% and the EC50 worked out at 3850 nM.

On to `CCCCCCCCCCCCCCCC(=O)N[C@@H](CSC[C@@H](COC(=O)CCCCCCCCCCC)OC(=O)CCCCCCCCCCC)C(=O)NCCOCCOCCOCCP(=O)(O)O` [Example 34, ((14R,18R)-18-(dodecanoyloxy)-13,21-dioxo-14-palmitamido-3,6,9,20-tetraoxa-16-thia-12-azadotriacontyl)phosphonic acid], for which the Emax was 47% and the EC50 was over 100000 nM.

Regarding `CCCCCCCCCCCCOC[C@H](CSC[C@H](N)C(=O)NCCOCCOCCC(F)(F)P(=O)(O)O)NC(=O)CCCCCCCCCCC` [Example 35, (12R,16R)-12-amino-16-dodecanamido-1,1-difluoro-11-oxo-4,7,18-trioxa-14-thia-10-azatriacontylphosphonic acid], the Emax worked out at 15% and the EC50 came to 770 nM.

`CCCCCCCCCCNC(=O)OC[C@H](CSC[C@H](N)C(=O)NCCOCCOCCOCCP(=O)(O)O)OC(=O)NCCCCCCCCCC` [Example 36, (14R,18R)-14-amino-18-(decylcarbamoyloxy)-13,21-dioxo-3,6,9,20-tetraoxa-16-thia-12,22-diazadotriacontylphosphonic acid] came in with an EC50 of 822 nM. Also, the “Hek-TLR2 (% Eff)” value (% Eff relative to Pam3CSK4, HEK 293 human TLR2 NF-kB luciferase) is on record as “(76%)”.

For `CCCCCCCCCCNC(=O)OC[C@H](CSC[C@H](N)C(=O)NCCOCCOCCOCCC(=O)O)OC(=O)NCCCCCCCCCC` [Example 37, (15R,19R)-15-amino-19-(decylcarbamoyloxy)-14,22-dioxo-4,7,10,21-tetraoxa-17-thia-13,23-diazatritriacontan-1-oic acid], the Emax came to 7% and a half-maximal effect (EC50) was put at 6210 nM.

For the compound `CCCCCCCCNC(=O)OC[C@H](CSC[C@H](N)C(=O)NCCOCCOCCOCCP(=O)(O)O)OC(=O)NCCCCCCCC` [Example 38, (14R,18R)-14-amino-18-(octylcarbamoyloxy)-13,21-dioxo-3,6,9,20-tetraoxa-16-thia-12,22-diazatriacontylphosphonic acid], the Emax worked out at 107% and the EC50 amounted to 7030 nM.
